Measurements: paper PMC5355877, “The development of novel LTA4H modulators to selectively target LTB4 generation” (Scientific Reports, 2017)
Values joined by “and” are separate entries in the source; they are usually repeats but may differ in a detail not shown here. Equal values may be shown once. Read-outs that look alike come from different tables or passages of the source.

How the values were obtained:
LTA4H (PGP degradation) = system: LTA4H (PGP degradation); parameters: method as in PMID 24591641; conditions: concentration of 100 μM; 5 μg/ml LTA4H; cited from earlier work
[1] = target: T1, recombinant human LTA4H (aminopeptidase, PGP substrate) (Homo sapiens, UniProt P09960); experiment: LTA4H aminopeptidase activity: PGP degradation by recombinant human LTA4H; format: biochemical
T1 construct: purchased Cayman Chemicals
T1 sequence (P09960 1-611): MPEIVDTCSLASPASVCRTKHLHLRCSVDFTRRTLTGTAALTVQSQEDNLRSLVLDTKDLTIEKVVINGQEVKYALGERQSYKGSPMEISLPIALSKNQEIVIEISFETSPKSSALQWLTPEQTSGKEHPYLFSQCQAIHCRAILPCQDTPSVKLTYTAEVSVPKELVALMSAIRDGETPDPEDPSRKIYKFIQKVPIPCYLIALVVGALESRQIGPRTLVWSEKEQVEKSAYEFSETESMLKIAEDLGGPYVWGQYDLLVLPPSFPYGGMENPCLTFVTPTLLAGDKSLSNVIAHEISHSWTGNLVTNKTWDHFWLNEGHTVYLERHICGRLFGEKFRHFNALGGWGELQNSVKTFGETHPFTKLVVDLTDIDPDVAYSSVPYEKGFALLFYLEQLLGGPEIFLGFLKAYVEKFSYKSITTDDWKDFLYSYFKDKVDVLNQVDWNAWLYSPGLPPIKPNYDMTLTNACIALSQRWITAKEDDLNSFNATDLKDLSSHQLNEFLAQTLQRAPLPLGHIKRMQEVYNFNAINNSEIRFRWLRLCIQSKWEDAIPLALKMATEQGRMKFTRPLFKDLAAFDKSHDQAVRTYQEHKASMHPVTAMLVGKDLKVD
Method: For peptide quantification in serum, PGP and AcPGP were measured using a MDS Sciex API-4000 spectrometer (Applied Biosystems, Foster City, CA) equipped with a Shimadzu HPLC (Columbia, MD). For peptide quantification from degradation experiments, PGP and AcPGP were measured using a Thermo Accela Pump and Autosampler coupled to a Thermo TSQ Quantum Access. […] Peak area was measured, and PGP/AcPGP peptide concentrations were calculated using a relative standard curve method as previously described.
Mouse serum (diluted 1/10 in PBS) or recombinant human LTA4H (0.1 μg/ml; Cayman Chemicals, Michigan, USA) were incubated with 0.4 mM PGP at 37 °C in 5% CO2 for varying periods of time. Concentrations of PGP remaining were subsequently quantified by ESI-LC/MS/MS (as discussed above) by comparison with PGP standards. The percentage of peptide degraded was determined relative to control samples of 0.4 mM PGP alone. PGP degradation was also assessed by measurement of free proline released and its ensuing reaction with Ninhydrin (as discussed below). Test compounds were assayed in a blinded manner by an investigator during determination of the effect on LTA4H aminopeptidase activity.
To assess free proline liberated, aliquots from PGP degradation experiments were diluted 1 in 10 in PBS (to a final volume of 250 μl). Glacial acetic acid (250 μl) was then added, followed by 250 μl of ninhydrin solution (25 mg/ml in acetic acid/6 M phosphoric acid; heated at 70 °C to dissolve). The reaction mixture was heated at 100 °C for 60 minutes, allowed to cool to room temperature and the proline containing fraction extracted with 500 μl of toluene and optical density measured at 520 nm.

[2] = system: LTB4 production by neutrophils; parameters: method as in PMID 24591641; conditions: cited from earlier work
[3] = target: T2, LTA4H epoxide hydrolase activity (LTB4 generation) (Mus musculus, UniProt P24527); experiment: LTA4H epoxide hydrolase activity: LTB4 generation by A23187-treated murine bone marrow neutrophils (EIA); format: cell-based; conditions: for IC50: LTB4 generation, murine neutrophils, read-out: Epoxide Hydrolase IC50 ± SEM
T2 construct: endogenous in cells; host or cells: murine bone marrow neutrophils
T2 sequence (P24527 1-611): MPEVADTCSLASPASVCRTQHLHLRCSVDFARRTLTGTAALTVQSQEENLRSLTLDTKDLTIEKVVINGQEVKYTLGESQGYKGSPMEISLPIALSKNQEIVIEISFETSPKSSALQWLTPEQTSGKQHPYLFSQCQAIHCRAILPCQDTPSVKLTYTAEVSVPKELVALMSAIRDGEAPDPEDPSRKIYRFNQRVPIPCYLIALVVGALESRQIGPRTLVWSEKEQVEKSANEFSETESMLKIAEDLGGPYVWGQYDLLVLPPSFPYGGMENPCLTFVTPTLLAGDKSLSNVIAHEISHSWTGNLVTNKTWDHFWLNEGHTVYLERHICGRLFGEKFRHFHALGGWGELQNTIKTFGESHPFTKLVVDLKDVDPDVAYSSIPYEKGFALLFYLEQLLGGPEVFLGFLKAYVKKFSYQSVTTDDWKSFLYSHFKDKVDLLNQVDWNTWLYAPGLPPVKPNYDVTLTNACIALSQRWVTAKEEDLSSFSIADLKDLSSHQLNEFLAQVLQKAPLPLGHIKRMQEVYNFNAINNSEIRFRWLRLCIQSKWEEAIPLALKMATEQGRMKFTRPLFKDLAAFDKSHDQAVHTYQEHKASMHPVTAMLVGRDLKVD
Method: To isolate murine bone marrow neutrophils, the femur and the tibia from both hind legs were removed and freed of soft tissue attachments, and the extreme distal tip of each extremity cut off. HBSS containing 15 mM EDTA and 30 mM HEPES was forced through the bone with a syringe. After dispersing cell clumps and passage through a […] sieve (BD labware, New Jersey), red blood cells were lysed by resuspending pellets in ACK buffer (for 3 minutes at room temperature) before centrifugation (800 × g, 5 min) and washing with HBSS. The cell suspension was centrifuged (800 × g, 5 min, 4 °C) and resuspended in RPMI.
(§1) 1% DMSO was used as a control. Cells were incubated for 20 minutes at 37 °C, and the reaction was terminated by centrifugation (600 × g, 5 min, 4 °C). Supernatants were removed and stored at −80 °C for subsequent LTB4 analysis. The concentration of LTB4 generated in the epoxide hydrolase activity assay was assayed using an EIA, according to manufacturer’s directions (R&D systems, Minneapolis, MN). Test compounds were assayed in a blinded manner by an investigator during determination of effect on LTA4H epoxide hydrolase activity.

[4] = Human liver microsome stability; format: in vitro ADME; conditions: liver microsomes
Text: (§2) ARM1 (4-(4-benzylphenyl)-1,3-thiazole-2-amine), compound 11 (7-hydroxy-3-(4-hydroxyphenyl)-4H-chromen-4-one) and compound 13 (7-hydroxy-3-phenyl-4H-chromen-4-one) were all purchased from VitasMLab (Kowloon, Hong Kong). […] All other compounds were custom synthesized by Peakdale Molecular as described in Supplementary Information. ADMET (absorption, distribution, metabolism, and excretion – toxicity) studies were also outsourced to Peakdale Molecular.

[5] = Mouse plasma protein binding; format: in vitro ADME
Text: as §2

logD pH7.4 = format: physicochemical; conditions: pH 7.4; read-out: logDpH7.4
Text: as §2

[6] = Mouse liver microsome stability; format: in vitro ADME; conditions: liver microsomes
Text: as §2

[7] = Human plasma protein binding; format: in vitro ADME
Text: as §2

[8] = target: T3, LTA4H epoxide hydrolase activity (LTB4 generation) (Homo sapiens, UniProt P09960); experiment: LTB4 generation by human blood-derived neutrophils; format: cell-based; conditions: preliminary data, blood-derived neutrophils from two distinct donors
T3 construct: endogenous in cells; host or cells: human peripheral blood neutrophils from healthy volunteers
T3 sequence (P09960 1-611): T1 sequence (P09960 1-611)
Method: To isolate human neutrophils, peripheral blood was taken from healthy volunteers following informed consent and according to an approved protocol. Neutrophils were subsequently isolated using the MACSxpress™ Neutrophil Isolation Kit (Miltenyi Biotec, UK).
as §1, with “1 × 10^5 murine bone marrow-derived neutrophils or human blood-derived neutrophils (compound 9 only) in 100 μl of RPMI were treated with A23187 at a final concentration of 20 μg/ml. 1%” for “1%”

[9] = parameters: method as in PMID 12540402; conditions: metabolic stability reported; cited from earlier work

For `Nc1nc(-c2ccc(Cc3ccccc3)cc2)cs1` [ARM1, 4-(4-benzylphenyl)-1,3-thiazole-2-amine, reference compound], the “inhibition of PGP degradation at 100 μM” value (LTA4H (PGP degradation)) is listed as “no inhibition”, the IC50 ([1]; PGP degradation, recombinant LTA4H, Table 1, read-out: Aminopeptidase IC50 ± SEM) is listed as 9110 nM and the IC50 ([1]; read-out: IC50 for inhibiting PGP degradation) is listed as about 9100 nM. For the same molecule, the IC50 [2] was 500 nM and ~500 nM and the IC50 ([3]; Table 1) was 600 ± 66.2 nM.

With `COc1cc(O)cc(CCc2ccccc2O)c1` [Compound 9] the IC50 ([1]; PGP degradation, Table 2, read-out: Aminopeptidase IC50 ± SEM) was over 100000 nM, the “inhibition of PGP degradation at 100 μM” value ([1]; concentration of 100 μM) was “no inhibition” and the microsomal CLint [4] was 59.5 µL/min/mg. For the same molecule, the half-life ([4]; read-out: Human liver microsomes t1/2) was 11.7 min, the fraction unbound [5] was 0.0213 and the logD (logD pH7.4) was 2.25 ± 0.1. The microsomal CLint [6] was 466 ± 100 µL/min/mg, the half-life ([6]; read-out: Mouse liver microsomes t1/2) was 1.5 min and the IC50 ([3]; Table 2) was 500 ± 40 nM. The “augmentation of LTB4 inhibitory capacity” value ([3]; relocation of hydroxyl to R3-position, relative to compound 6) was 10 fold, the fraction unbound [7] was 0.0225 and the IC50 [8] was 2400 nM.

For `O=c1c(-c2ccc(O)cc2)coc2cc(O)ccc12` [Compound 11, 7-hydroxy-3-(4-hydroxyphenyl)-4H-chromen-4-one], the t1/2 [9] is given as 465 ± 21.6 min, the IC50 ([1]; PGP degradation, Table 3, read-out: Aminopeptidase IC50 ± SEM) is given as over 100000 nM and the IC50 ([3]; Table 3) is given as 15000 ± 2300 nM.
